Experimental data published in ChEMBL document CHEMBL5518189, “Design, synthesis and biological evaluation of 1,2,3-triazole benzothiazole derivatives as tubulin polymerization inhibitors with potent anti-esophageal cancer activities” (Eur J Med Chem, 2024).

Columns and labels:
MGC-803 = experiment: Antiproliferative activity against human MGC-803 cells assessed as inhibition of cell growth measured after 48 hrs by CCK8 method; type: functional, cell-based; details: MGC-803, 48 h
KYSE-30 = experiment: Antiproliferative activity against human KYSE-30 cells assessed as inhibition of cell growth measured after 48 hrs by CCK8 method; type: functional, cell-based; details: KYSE-30, 48 h
HCT-116 = experiment: Antiproliferative activity against human HCT-116 cells assessed as inhibition of cell growth measured after 48 hrs by CCK8 method; type: functional, cell-based; details: HCT-116, 48 h
Tubulin [1] = experiment: Inhibition of tubulin polymerization (unknown origin); type: protein-complex assay, Homo sapiens
HeLa = experiment: Growth inhibition of human HeLa cells; type: functional
PC-3 = experiment: Antiproliferative activity against human PC-3 cells assessed as inhibition of cell growth measured after72 hrs by MTT assay; type: functional, cell-based
Tubulin [2] = experiment: Inhibition of tubulin polymerization (unknown origin) by spectrophotometer analysis; type: protein-complex assay, Homo sapiens

| Compound | IC50 (MGC-803) [µM] | IC50 (HCT-116) [µM] | IC50 (Tubulin [1]) [µM] | GI50 (HeLa) [µM] | IC50 (PC-3) [µM] | IC50 (Tubulin [2]) [µM] | IC50 (KYSE-30) [µM] |
| --- | --- | --- | --- | --- | --- | --- | --- |
| COc1cc2c(c(OC)c1OC)-c1ccc(OC)c(=O)cc1[C@@H](NC(C)=O)CC2 [COLCHICINE] | 0.046 | – | – | – | – | – | 0.048 |
| COc1ccc(CN(C(=O)Cn2cc(CSc3nc4ccccc4s3)nn2)c2ccc(OC)c(OC)c2)cc1 | 38.5 | 52.4 | – | – | – | – | > 80 |
| COc1ccc2nc(-c3cccnc3-c3cc(OC)c(OC)c(OC)c3)sc2c1 | – | – | 1.67 | – | – | – | – |
| COc1ccc(CN(C(=O)Cn2cc(CSc3nc4ccccc4s3)nn2)c2ccc(F)cc2)cc1 | 68.5 | > 80 | – | – | – | – | 77.6 |
| COc1ccc(CN(C(=O)Cn2cc(CSc3nc4ccccc4s3)nn2)c2ccc(C)cc2)cc1 | 46.5 | > 80 | – | – | – | – | 63.1 |
| COc1ccc2nc(-c3ccc(-n4cnnc4-c4cc(OC)c(OC)c(OC)c4)c(C)c3)sc2c1 | – | – | 1.91 | 0.04 | – | – | – |
| COc1ccc(CN(C(=O)Cn2cc(CSc3nc4ccccc4s3)nn2)c2ccccc2)cc1 | 52.5 | 63.7 | – | – | – | – | 62.2 |
| COc1ccc(CN(C(=O)Cn2cc(CSc3nc4ccccc4s3)nn2)c2ccc(Cl)cc2)cc1 | 62.1 | 59.5 | – | – | – | – | > 80 |
| COc1ccc(CN(C(=O)Cn2cc(CSc3nc4ccccc4s3)nn2)c2ccc(Br)cc2)cc1 | 53.3 | 60.3 | – | – | – | – | 35.5 |
| COc1cc(N(Cc2c(C)noc2C)C(=O)Cn2cc(CSc3nc4ccccc4s3)nn2)cc(OC)c1OC | > 80 | > 80 | – | – | – | – | > 80 |
| COc1cc(N(Cc2nc3ccccc3[nH]2)C(=O)Cn2cc(CSc3nc4ccccc4s3)nn2)cc(OC)c1OC | 40.3 | 68.7 | – | – | – | – | 56.8 |
| COc1ccc(CN(C(=O)Cn2cc(CSc3nc4ccccc4s3)nn2)c2ccc(OC)cc2)cc1 | 14.5 | 34.2 | – | – | – | – | 28.3 |
| COc1cc(N(Cc2c(C)noc2C)C(=O)CSc2nc3ccccc3s2)cc(OC)c1OC | – | – | – | – | 2.04 | – | – |
| COc1cc(C(=O)c2nc3cc(Br)ccc3s2)cc(OC)c1OC | – | – | – | – | – | 13.1 | – |

Now from value to compound, other results behind:

| IC50 (MGC-803) [µM] | IC50 (HCT-116) [µM] | IC50 (Tubulin [1]) [µM] | GI50 (HeLa) [µM] | IC50 (PC-3) [µM] | IC50 (Tubulin [2]) [µM] | Compound | IC50 (KYSE-30) [µM] |
| --- | --- | --- | --- | --- | --- | --- | --- |
| 8.16 | 16.2 | – | – | – | – | COc1ccc(CN(C(=O)Cn2cc(CSc3nc4ccccc4s3)nn2)c2cc(OC)c(OC)c(OC)c2)cc1[N+](=O)[O-] | 12.1 |
| 0.29 | 0.47 | – | – | – | – | COc1ccc(CN(C(=O)Cn2cc(CSc3nc4ccccc4s3)nn2)c2cc(OC)c(OC)c(OC)c2)cc1F | 0.76 |
| > 80 | > 80 | – | – | – | – | COc1cc(N(Cc2ccc(F)cc2)C(=O)Cn2cc(CSc3nc4ccccc4s3)nn2)cc(OC)c1OC | > 80 |
| 1.56 | 2.19 | – | – | – | – | COc1ccc(CN(C(=O)Cn2cc(CSc3nc4ccccc4s3)nn2)c2cc(OC)c(OC)c(OC)c2)cc1OC | 1.74 |
| 2.35 | 3.97 | – | – | – | – | COc1cc(N(Cc2ccc(C)cc2)C(=O)Cn2cc(CSc3nc4ccccc4s3)nn2)cc(OC)c1OC | 1.86 |
| 0.054 | 0.064 | – | – | – | – | COc1ccc(CN(C(=O)Cn2cc(CSc3nc4ccc(Br)cc4s3)nn2)c2cc(OC)c(OC)c(OC)c2)cc1O | 0.049 |
| > 80 | > 80 | – | – | – | – | COc1cc(N(Cc2ccc(Cl)cc2)C(=O)Cn2cc(CSc3nc4ccccc4s3)nn2)cc(OC)c1OC | > 80 |
| 0.069 | 0.062 | – | – | – | – | COc1ccc(CN(C(=O)Cn2cc(CSc3nc4ccc(Cl)cc4s3)nn2)c2cc(OC)c(OC)c(OC)c2)cc1O | 0.072 |
| > 80 | > 80 | – | – | – | – | COc1cc(N(Cc2cccnc2)C(=O)Cn2cc(CSc3nc4ccccc4s3)nn2)cc(OC)c1OC | > 80 |
| 0.063 | 0.126 | – | – | – | – | COc1ccc2nc(SCc3cn(CC(=O)N(Cc4ccc(OC)c(O)c4)c4cc(OC)c(OC)c(OC)c4)nn3)sc2c1 | 0.058 |
| 0.82 | 1.33 | – | – | – | – | COc1ccc(CN(C(=O)Cn2cc(CSc3nc4ccccc4s3)nn2)c2cc(OC)c(OC)c(OC)c2)cc1Br | 1.14 |
| 0.089 | 0.078 | – | – | – | – | COc1ccc(CN(C(=O)Cn2cc(CSc3nc4c(C)cccc4s3)nn2)c2cc(OC)c(OC)c(OC)c2)cc1O | 0.067 |
| 0.088 | 0.094 | – | – | – | – | COc1ccc(CN(C(=O)Cn2cc(CSc3nc4ccccc4s3)nn2)c2cc(OC)c(OC)c(OC)c2)cc1N | 0.059 |
| 74.3 | 60.1 | – | – | – | – | COc1cc(N(Cc2ccc(Br)cc2)C(=O)Cn2cc(CSc3nc4ccccc4s3)nn2)cc(OC)c1OC | > 80 |
| 1.03 | 1.68 | – | – | – | – | COc1ccc(CN(C(=O)Cn2cc(CSc3nc4ccccc4s3)nn2)c2cc(OC)c(OC)c(OC)c2)cc1 | 1.44 |
| > 80 | > 80 | – | – | – | – | COc1cc(CN(C(=O)Cn2cc(CSc3nc4ccccc4s3)nn2)c2cc(OC)c(OC)c(OC)c2)cc(OC)c1OC | > 80 |
